Here are results for 59 compounds from paper PMC12040169 (PLOS Biology, 2025).

This data set can be described thus: in vitro. Conditions: human, hela cells, % viability.

As a reminder, the viability is a read-out of living cells in per cent, often relative to untreated cells. Consider `CCc1nn(CC(=O)N(C(C)C)C(C)C)c(=O)c2cc3occc3n12` [CBK283658], for which the viability at 28.5 h, 10 µM was found to be 89.3%.

With `COc1cccc(C2(NC(=O)c3c(C)noc3C)CCCC2)c1` [CBK283659], the viability at 28.5 h, 10 µM came out at 98.1%.

`COc1cccc(C2(NC(=O)CCn3cccn3)CCCC2)c1` [CBK283660]: the viability at 28.5 h, 10 µM amounted to 94.5%.

For the compound `COc1ccc(C2(NC(=O)Cn3ccnc3)CCCCC2)cc1` [CBK283661], the viability at 28.5 h, 10 µM came to 84%.

Turning to `O=C(NCCc1ccccc1)c1ncoc1-c1cccs1` [CBK283662], the viability at 28.5 h, 10 µM stood at 91.8%.

As for `COc1ccc(CCNC(=O)c2ncoc2-c2cccs2)cc1` [CBK283663], the viability at 28.5 h, 10 µM was 103%.

As for `Cc1cc(C)n(CCC(=O)N2CCCC2c2nc3ccccc3[nH]2)n1` (centres unmarked) [CBK283664], the viability at 28.5 h, 10 µM worked out at 106%.

As to `O=C(Cn1ncc2cccn2c1=O)OC1CCCCC1` [CBK283667], the viability at 28.5 h, 10 µM was 91.8%.

As for `O=C(c1c(F)cccc1F)N1CCC(O)(c2ccccn2)CC1` [CBK283670], the viability at 28.5 h, 10 µM worked out at 105%.

As to `O=C(c1ccc(F)cc1F)N1CCC(O)(c2ccccn2)CC1` [CBK283671], the viability at 28.5 h, 10 µM was 107%.

As to `O=C(Cn1ncc2cccn2c1=O)Nc1ccc(F)cc1` [CBK283672], the viability at 28.5 h, 10 µM amounted to 107%.

As for `CCc1nn(CC(=O)N2CCC(C)CC2)c(=O)c2cc3occc3n12` [CBK283675], the viability at 28.5 h, 10 µM stood at 76.4%.

Regarding `CCc1nn(CC(=O)N2CCCCC2C)c(=O)c2cc3occc3n12` (centres unmarked) [CBK283676], the viability at 28.5 h, 10 µM worked out at 67.5%.

`c1coc(-c2nc3cnccn3c2NC2CCCC2)c1` [CBK283678]: the viability at 28.5 h, 10 µM is 90.6%.

For the compound `CC(C)n1cc(C(=O)N2CCCCC2c2nc3ccccc3[nH]2)cn1` (centres unmarked) [CBK283679], the viability at 28.5 h, 10 µM turned out to be 102%.

On to `CC1CCCC(C)N1C(=O)Cn1ncc2cccn2c1=O` (centres unmarked) [CBK283680], for which the viability at 28.5 h, 10 µM was 101%.

For `Fc1ccccc1-c1nc2cnccn2c1NCc1ccco1` [CBK283681], the viability at 28.5 h, 10 µM stood at 84.9%.

`O=C(CN1CCC(c2ccc(F)cc2)CC1)N1CCOCC1` [CBK283683]: the viability at 28.5 h, 10 µM was determined as 88.4%.

With `O=C1CC2(CCN(C(=O)C3CCCC3)CC2)Oc2ccc(F)cc21` [CBK283686], the viability at 28.5 h, 10 µM turned out to be 80.2%.

Regarding `Cc1oc(C2CC2)cc1C(=O)N1CCn2c(nnc2C2CC2)C1` [CBK283687], the viability at 28.5 h, 10 µM stood at 94.9%.

As for `O=C(c1cccnc1)C1CCN(C(=O)Cc2ccccc2Cl)CC1` [CBK283690], the viability at 28.5 h, 10 µM came to 90.3%.

`O=c1oc(-c2ccncc2)nn1Cc1ccccc1F` [CBK283692]: the viability at 28.5 h, 10 µM was 89.1%.

As to `Cc1ccc(CNc2c(-c3ccco3)nc3cnccn23)cc1` [CBK283693], the viability at 28.5 h, 10 µM was 89.3%.

`Fc1ccc(CNc2c(-c3ccco3)nc3cnccn23)cc1` [CBK283694]: the viability at 28.5 h, 10 µM is 92%.

As for `CC(C)n1c(=O)n(CC(=O)N(C)C2CCCCC2)c2cccnc21` [CBK283695], the viability at 28.5 h, 10 µM came to 95.6%.

As to `CC(C)n1c(=O)n(CC(=O)NC2CCCCC2)c2cccnc21` [CBK283696], the viability at 28.5 h, 10 µM worked out at 99%.

Take `CC1CCCCC1NC(=O)Cn1c(=O)n(C(C)C)c2ncccc21` (centres unmarked) [CBK283697]: the viability at 28.5 h, 10 µM amounted to 88.8%.

As to `CC(C)n1c(=O)n(CC(=O)NCc2cccs2)c2cccnc21` [CBK283699], the viability at 28.5 h, 10 µM came out at 88.6%.

For the compound `CC(C)n1c(=O)n(CC(=O)NC2CCCC2)c2cccnc21` [CBK283700], the viability at 28.5 h, 10 µM stood at 89.2%.

`O=C(Cn1ncc2cccn2c1=O)Nc1cccc(F)c1` [CBK283702]: the viability at 28.5 h, 10 µM turned out to be 89.8%.

On to `O=C(NCCn1nc(-c2ccco2)ccc1=O)c1cccs1` [CBK283704], for which the viability at 28.5 h, 10 µM came out at 92.5%.

As to `O=C(NCCn1nc(-c2ccco2)ccc1=O)C1CCCC1` [CBK283707], the viability at 28.5 h, 10 µM was found to be 92%.

As for `COc1ccc([C@@H]2CCN(C(=O)Cc3ccc(F)cc3)C[C@H]2O)cc1` [CBK283709], the viability at 28.5 h, 10 µM is 88.8%.

Turning to `O=C(CCn1cnc2ccccc21)N1CC[C@@H](c2ccccc2)[C@H](O)C1` [CBK283712], the viability at 28.5 h, 10 µM came out at 102%.

For the compound `O=C(Cc1ccc(F)cc1)N1CC[C@@H](c2ccccc2)[C@H](O)C1` [CBK283714], the viability at 28.5 h, 10 µM amounted to 84.5%.

For the compound `O=C(c1cc(F)cc(F)c1)N1CC[C@@H](c2ccccc2)[C@H](O)C1` [CBK283715], the viability at 28.5 h, 10 µM came out at 79.1%.

In the case of `O=C(c1cccc2ncccc12)N1CC[C@@H](c2ccccc2)[C@H](O)C1` [CBK283716], the viability at 28.5 h, 10 µM came to 84.3%.

Turning to `O=C(c1csc2c1CCCC2)N1CCc2c(nc[nH]c2=O)C1` [CBK283717], the viability at 28.5 h, 10 µM is 77.7%.

For the compound `CCn1cc(C(=O)N2C[C@H](C(=O)OC)[C@@H](c3ccc(F)cc3)C2)cn1` [CBK283719], the viability at 28.5 h, 10 µM amounted to 89.7%.

In the case of `COC(=O)[C@H]1CN(C(=O)c2cnn(C)c2C)C[C@@H]1c1ccc(F)cc1` [CBK283721], the viability at 28.5 h, 10 µM was 84.5%.

Regarding `O=C(O)[C@H]1CN(C(=O)CCc2ccco2)C[C@@H]1c1ccc(F)cc1` [CBK283722], the viability at 28.5 h, 10 µM was determined as 86.5%.

As for `Cn1ccnc1C(NC(=O)Cc1ccc(O)cc1)c1ccccc1` (centres unmarked) [CBK283723], the viability at 28.5 h, 10 µM is 87.9%.

On to `Cc1nc2c(-c3cccs3)c(C)nn2c(O)c1C` [CBK283728], for which the viability at 28.5 h, 10 µM was found to be 99.9%.

With `CCc1cc(O)n2nc(C)c(-c3cccs3)c2n1` [CBK283730], the viability at 28.5 h, 10 µM turned out to be 99.3%.

Turning to `COC(=O)[C@H]1CN(C(=O)c2cccs2)C[C@@H]1c1ccc(F)cc1` [CBK283732], the viability at 28.5 h, 10 µM turned out to be 92%.

Consider `O=C(NCCn1nc(-c2ccco2)ccc1=O)c1ccccc1F` [CBK283742], for which the viability at 28.5 h, 10 µM was 92.5%.

Take `COC(=O)c1ccc(/C=C/C2=CCN(C)CC2)cc1` [CBK283744]: the viability at 28.5 h, 10 µM is 94.5%.

On to `O=C(c1cccnc1)C1CCN(C(=O)c2cc(F)cc(F)c2)CC1` [CBK283746], for which the viability at 28.5 h, 10 µM was found to be 102%.

For `COc1cccc(C2(NC(=O)CCn3nc(C)cc3C)CCCC2)c1` [CBK283749], the viability at 28.5 h, 10 µM came out at 90.7%.

`Cc1nc2c(c(=O)[nH]1)CCN(C(=O)c1cc3c(s1)CCC3)C2` [CBK283751]: the viability at 28.5 h, 10 µM came out at 105%.

As for `Cc1nc2c(c(=O)[nH]1)CCN(C(=O)c1oc3ccccc3c1C)C2` [CBK283752], the viability at 28.5 h, 10 µM was determined as 111%.

For the compound `Cc1nc2c(c(=O)[nH]1)CCN(C(=O)c1cc(C3CC3)oc1C)C2` [CBK283753], the viability at 28.5 h, 10 µM worked out at 92.5%.

Take `Cc1ccc(C2(C(=O)N3CCC(O)(c4ccccn4)CC3)CC2)cc1` [CBK283754]: the viability at 28.5 h, 10 µM is 96.4%.

On to `O=C(Cc1ccc(F)cc1Cl)N1CCC(O)(c2ccccn2)CC1` [CBK283755], for which the viability at 28.5 h, 10 µM amounted to 98.1%.

With `COc1ccc([C@@H]2CCN(C(=O)c3cc(F)cc(F)c3)C[C@H]2O)cc1` [CBK283757], the viability at 28.5 h, 10 µM worked out at 97%.

With `CC(C)n1c(=O)n(CC(=O)NCc2ccccc2)c2cccnc21` [CBK283758], the viability at 28.5 h, 10 µM is 99.8%.

Turning to `O=C(NC1CC2(CCCCC2)Oc2ccccc21)C1CCOC1` (centres unmarked) [CBK283760], the viability at 28.5 h, 10 µM was 105%.

As to `O=C(c1cncc(O)c1)N1C2CCC1CC(c1ccc(F)cc1)C2` (centres unmarked) [CBK283764], the viability at 28.5 h, 10 µM was determined as 96.4%.

On to `O=C(CCc1ccco1)N1CCCC1c1nc2ccccc2[nH]1` (centres unmarked) [CBK283767], for which the viability at 28.5 h, 10 µM stood at 104%.
